Where “and” joins values, the source holds several entries; their conditions need not be identical. Equal values may be shown once.
These molecules were tested against Adenosine A2A receptor (Homo sapiens, UniProt P29274) (assay: cAMP assay in 293A cells stably expressing the adenosine A2A receptor (CGS21680 stimulation, HTRF)). Details: 293A cells stably expressing A2A receptor; 0.1% BSA; 1 uM CGS21680 stimulation; replicate values separated by /; read-out: cAMP (nM) 0.1% BSA, 1 uM CGS.
Format: cell-based
Set-up: expressed in transfected cells; host or cells: 293A cells (Invitrogen, Cat# R705-07) infected with A2A-expressing lentivirus (custom packaged by Biosettia), puromycin selected
Protocol: A 293A cell line (Invitrogen, Cat# R705-07) stably expressing the adenosine A2A receptor was generated in house. Briefly, 293A cells were seeded in 6-well plate and infected with A2A expressing lentivirus (custom packaged by Biosettia) and selected with puromycin (1 ug/ml). Cells survived selection were confirmed for A2A expression by RT-qPCR (RT Reagent: High-Capacity cDNA Reverse Transcription Kit, Applied Biosystems/Thermo Fisher Cat# 4368814, qPCR reagent: SYBR™ Green Master Mix, Applied Biosystems/Thermo Fisher Cat# 4309155). The cells were maintained in DMEM/F12 medium containing 10% FBS, 100 units/ml Penicillin, 100 μg/ml Streptomycin, and 1 μg/ml puromycin at 37° C., 5% CO2. 293A-A2AR cells were harvested on the day of assay and resuspended at 0.6 million cells/ml in DMEM/F12 with 0.1% BSA and 30 U/ml denosine deaminase(Roche, Cat #: 10102121001). Serial dilutions of compounds were prepared in DMEM/F12 with 0.1% BSA to a DMSO concentration of 0.6%. After 4 μl of compound dilutions were added, 4 μl suspended cells were dispensed into low-volume white 384-well plates (Greiner Bio-One). […] The assay plate was then incubated at room temperature for 30 min. 3 μl of d2 conjugated cAMP and 3 μl cryptate conjugated anti-cAMP antibody were then added. D2 conjugated cAMP and cryptate conjugated anti-cAMP antibody (Cisbio, Cat #: 62AM6PEC) were both prepared in cell lysis buffer according to the manufacturer's instruction. After 1 h incubation at room temperature, plates were read in CIARIOstar plate reader (BMG Labtech) using the HTRF detection mode.

Adenosine A2A receptor, sequence (P29274 whole entry): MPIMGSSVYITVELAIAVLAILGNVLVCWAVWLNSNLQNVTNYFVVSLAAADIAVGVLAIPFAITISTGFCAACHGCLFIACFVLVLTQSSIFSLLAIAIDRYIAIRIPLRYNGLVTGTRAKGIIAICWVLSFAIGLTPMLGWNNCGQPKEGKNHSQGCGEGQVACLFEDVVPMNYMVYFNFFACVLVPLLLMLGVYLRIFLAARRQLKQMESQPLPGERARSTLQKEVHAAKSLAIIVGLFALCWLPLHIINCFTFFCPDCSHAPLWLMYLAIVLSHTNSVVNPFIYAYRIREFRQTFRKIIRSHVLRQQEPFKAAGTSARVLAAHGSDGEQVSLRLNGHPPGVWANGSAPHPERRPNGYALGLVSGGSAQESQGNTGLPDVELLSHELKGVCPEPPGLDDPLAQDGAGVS

Row | Structure (SMILES) | IC50
1 | Cc1cc(-c2c(OCc3nccc4c3cnn4C)nc(N)nc2-c2ccc(F)cc2)cc(C(F)F)n1 [Example 423, 5-(2-(difluoromethyl)-6-methylpyridin-4-yl)-4-(4-fluorophenyl)-6-((1-methyl-1H-pyrazolo[4,3-c]pyridin-4-yl)methoxy)pyrimidin-2-amine] | 435 nM and 732 nM

Same assay, conditions: 293A-A2AR cells, 0.1% BSA, 1 uM CGS; read-out: cAMP (nM) 0.1% BSA, 1 uM CGS

Row | IC50 | Structure (SMILES)
2 | 85 nM and 98 nM and 51 nM | CCC(C#N)(CC)c1cccc(COc2nc(N)nc(-c3ccc(F)cc3)c2-c2cc(C)nc(C(F)F)c2)n1 [Example 390, 2-(6-(((2-amino-5-(2-(difluoromethyl)-6-methylpyridin-4-yl)-6-(4-fluorophenyl)pyrimidin-4-yl)oxy)methyl)pyridin-2-yl)-2-ethylbutanenitrile]
3 | 4800 nM | Cc1cc(-c2c(OCc3cccc(C(C)(C)C(=O)O)c3)nc(N)nc2-c2ccc(F)cc2)cc(C(F)F)n1 [Example 363, 2-(3-(((2-amino-5-(2-(difluoromethyl)-6-methylpyridin-4-yl)-6-(4-fluorophenyl)pyrimidin-4-yl)oxy)methyl)phenyl)-2-methylpropanoic acid]
4 | > 25000 nM | Cc1cc(-c2c(OCc3ccccn3)nc(NCC(=O)O)nc2-c2ccc(F)cc2)cc(C(F)F)n1 [Example 364, (5-(2-(difluoromethyl)-6-methylpyridin-4-yl)-4-(4-fluorophenyl)-6-(pyridin-2-ylmethoxy)pyrimidin-2-yl)glycine]
5 | > 10000 nM | Cc1cc(-c2c(OCc3cccc(N4CCC[C@H]4C(=O)O)n3)nc(N)nc2-c2ccc(F)cc2)cc(C(F)F)n1 [Example 311, (6-(((2-amino-5-(2-(difluoromethyl)-6-methylpyridin-4-yl)-6-(4-fluorophenyl)pyrimidin-4-yl)oxy)methyl)pyridin-2-yl)-L-proline]
6 | 1370 nM | Cc1cc(-c2c(OCc3cccc(N4CC[C@H](C(=O)O)C4)n3)nc(N)nc2-c2ccc(F)cc2)cc(C(F)F)n1 [Example 309, (S)-1-(6-(((2-amino-5-(2-(difluoromethyl)-6-methylpyridin-4-yl)-6-(4-fluorophenyl)pyrimidin-4-yl)oxy)methyl)pyridin-2-yl)pyrrolidine-3-carboxylic acid]
7 | 17600 nM and 23300 nM | Cc1cc(-c2c(OCc3ccc(F)c(C(C)(C)C(=O)O)n3)nc(N)nc2-c2ccc(F)cc2)cc(C(F)F)n1 [Example 375, 2-(6-(((2-amino-5-(2-(difluoromethyl)-6-methylpyridin-4-yl)-6-(4-fluorophenyl)pyrimidin-4-yl)oxy)methyl)-3-fluoropyridin-2-yl)-2-methylpropanoic acid]
8 | 85 nM and 158 nM and 45 nM | Cc1cc(-c2c(OCCc3cccc(C(C)(C)C#N)n3)nc(N)nc2-c2ccc(F)cc2)cc(C(F)F)n1 [Example 362, 2-(6-(2-((2-amino-5-(2-(difluoromethyl)-6-methylpyridin-4-yl)-6-(4-fluorophenyl)pyrimidin-4-yl)oxy)ethyl)pyridin-2-yl)-2-methylpropanenitrile]
9 | 628 nM and 597 nM and 892 nM and 826 nM and 566 nM and 686 nM | Cc1cc(-c2c(OCc3cccc(C(C)(C)NCC(=O)O)n3)nc(N)nc2-c2ccc(F)cc2)cc(C(F)F)n1 [Example 393, (2-(6-(((2-amino-5-(2-(difluoromethyl)-6-methylpyridin-4-yl)-6-(4-fluorophenyl)pyrimidin-4-yl)oxy)methyl)pyridin-2-yl)propan-2-yl)glycine]
10 | 965 nM | Cc1cc(-c2c(OCc3cccc(C(O)CO)n3)nc(N)nc2-c2ccc(F)cc2)cc(C(F)F)n1 (stereo not drawn) [Example 303, 1-(6-(((2-amino-5-(2-(difluoromethyl)-6-methylpyridin-4-yl)-6-(4-fluorophenyl)pyrimidin-4-yl)oxy)methyl)pyridin-2-yl)ethane-1,2-diol]
11 | 865 nM and 496 nM | Cc1cc(-c2c(OCc3cccc(C(C)(O)C(=O)O)n3)nc(N)nc2-c2ccc(F)cc2)cc(C(F)F)n1 (stereo not drawn) [Example 394, 2-(6-(((2-amino-5-(2-(difluoromethyl)-6-methylpyridin-4-yl)-6-(4-fluorophenyl)pyrimidin-4-yl)oxy)methyl)pyridin-2-yl)-2-hydroxypropanoic acid]

More lines, now with the values behind:

Row | Structure (SMILES) | IC50
12 | CCc1c(COc2nc(N)nc(-c3ccc(F)cc3)c2-c2cc(C)nc(C(F)F)c2)nnn1CC(O)COC (stereo not drawn) [Example 323, 1-(4-(((2-amino-5-(2-(difluoromethyl)-6-methylpyridin-4-yl)-6-(4-fluorophenyl)pyrimidin-4-yl)oxy)methyl)-5-ethyl-1H-1,2,3-triazol-1-yl)-3-methoxypropan-2-ol] | 1680 nM
13 | Cc1cc(-c2c(OCc3ccnn3CC3CC3)nc(N)nc2-c2ccc(F)cc2)cc(C(F)F)n1 [Example 229, 4-((1-(cyclopropylmethyl)-1H-pyrazol-5-yl)methoxy)-5-(2-(difluoromethyl)-6-methylpyridin-4-yl)-6-(4-fluorophenyl)pyrimidin-2-amine] | 107 nM
14 | Cc1cc(-c2c(OCc3nc4ccc(C(C)(C)O)cc4n3C)nc(N)nc2-c2ccc(F)cc2)cc(C(F)F)n1 [Example 358, 2-(2-(((2-amino-5-(2-(difluoromethyl)-6-methylpyridin-4-yl)-6-(4-fluorophenyl)pyrimidin-4-yl)oxy)methyl)-1-methyl-1H-benzo[d]imidazol-6-yl)propan-2-ol] | 940 nM and 1060 nM
15 | Cc1cc(-c2c(OCc3nccn3CCCC(=O)O)nc(N)nc2-c2ccc(F)cc2)cc(C(F)F)n1 [Example 386, 4-(2-(((2-amino-5-(2-(difluoromethyl)-6-methylpyridin-4-yl)-6-(4-fluorophenyl)pyrimidin-4-yl)oxy)methyl)-1H-imidazol-1-yl)butanoic acid] | 3820 nM
16 | Cc1cc(-c2c(OCc3nc(C(C)(C)O)cs3)nc(N)nc2-c2ccc(F)cc2)cc(C(F)F)n1 [Example 366, 2-(2-(((2-amino-5-(2-(difluoromethyl)-6-methylpyridin-4-yl)-6-(4-fluorophenyl)pyrimidin-4-yl)oxy)methyl)thiazol-4-yl)propan-2-ol] | 1690 nM
17 | CCn1c(COc2nc(N)nc(-c3ccc(F)cc3)c2-c2cc(C)nc(C(F)F)c2)nc2cccc(C(=O)O)c21 [Example 344, 2-(((2-amino-5-(2-(difluoromethyl)-6-methylpyridin-4-yl)-6-(4-fluorophenyl)pyrimidin-4-yl)oxy)methyl)-1-ethyl-1H-benzo[d]imidazole-7-carboxylic acid] | > 25000 nM
18 | Cc1cc(-c2c(OCc3ccnc(C(C)(C)C#N)c3)nc(N)nc2-c2ccc(F)cc2)cc(C(F)F)n1 [Example 277, 2-(4-(((2-amino-5-(2-(difluoromethyl)-6-methylpyridin-4-yl)-6-(4-fluorophenyl)pyrimidin-4-yl)oxy)methyl)pyridin-2-yl)-2-methylpropanenitrile] | 455 nM
19 | Cc1cc(-c2c(OCCOC(C)(C)C(=O)O)nc(N)nc2-c2ccc(F)cc2)cc(C(F)F)n1 [Example 226] | > 2500 nM
20 | CCn1c(COc2nc(N)nc(-c3ccc(F)cc3)c2-c2cc(C)nc(C(F)F)c2)nc2c(C(=O)O)cccc21 [Example 345, 2-(((2-amino-5-(2-(difluoromethyl)-6-methylpyridin-4-yl)-6-(4-fluorophenyl)pyrimidin-4-yl)oxy)methyl)-1-ethyl-1H-benzo[d]imidazole-4-carboxylic acid] | 10300 nM
21 | CCc1c(COc2nc(N)nc(-c3cccc(C#N)c3C)c2-c2cc(C)nc(C(F)F)c2)nnn1CC [Example 256, 3-(2-amino-6-((1,5-diethyl-1H-1,2,3-triazol-4-yl)methoxy)-5-(2-(difluoromethyl)-6-methylpyridin-4-yl)pyrimidin-4-yl)-2-methylbenzonitrile] | 2910 nM
22 | Cc1cc(-c2c(-c3ccc(F)cc3)nc(N)nc2-c2cn(Cc3cccc(C(C)(C)O)n3)nn2)cc(C(F)F)n1 [Example 298, 2-(6-((4-(2-amino-5-(2-(difluoromethyl)-6-methylpyridin-4-yl)-6-(4-fluorophenyl)pyrimidin-4-yl)-1H-1,2,3-triazol-1-yl)methyl)pyridin-2-yl)propan-2-ol] | > 10000 nM
23 | CCc1nnn(CC)c1COc1nc(N)nc(-c2cccc(C#N)c2C)c1-c1cc(C)nc(C(F)F)c1 [Example 255, 3-(2-amino-6-((1,4-diethyl-1H-1,2,3-triazol-5-yl)methoxy)-5-(2-(difluoromethyl)-6-methylpyridin-4-yl)pyrimidin-4-yl)-2-methylbenzonitrile] | > 25000 nM
24 | Cc1cc(-c2c(OCc3nccn3CC(=O)O)nc(N)nc2-c2ccc(F)cc2)cc(C(F)F)n1 [Example 249, 2-(2-(((2-amino-5-(2-(difluoromethyl)-6-methylpyridin-4-yl)-6-(4-fluorophenyl)pyrimidin-4-yl)oxy)methyl)-1H-imidazol-1-yl)acetic acid] | 7240 nM

Reference: patent US20210355104A1, “ADENOSINE RECEPTOR BINDING COMPOUNDS” (Nikang Therapeuticsm Inc., priority 2018, published 2021)
